Data as given in ChEMBL document CHEMBL4138123, “Design, synthesis and biological evaluation of novel pyrazolochalcones as potential modulators of PI3K/Akt/mTOR pathway and inducers of apoptosis in breast cancer cells” (Eur J Med Chem, 2017).

Columns and labels:
OVCAR-8 [1] = test: Cytotoxicity against human OVCAR8 cells assessed as cell growth at 1 uM after 48 hrs by sulforhodamine B assay relative to control; assay type: functional; details: OVCAR-8, 48 h, read-out: Activity
OVCAR-8 [2] = test: Cytotoxicity against human OVCAR8 cells assessed as cell growth at 0.01 uM after 48 hrs by sulforhodamine B assay relative to control; assay type: functional; details: OVCAR-8, 48 h, read-out: Activity
SK-MEL-5 = test: Cytotoxicity against human SK-MEL-5 cells assessed as cell growth at 1 uM after 48 hrs by sulforhodamine B assay relative to control; assay type: functional; details: SK-MEL-5, 48 h, read-out: Activity
MDA-MB-231 = test: Cytotoxicity against human MDA-MB-231 cells assessed as growth inhibition after 48 hrs by MTT assay; assay type: functional, cell-based; details: MDA-MB-231, 48 h
UACC-62 = test: Cytotoxicity against human UACC62 cells assessed as growth inhibition after 48 hrs by sulforhodamine B assay; assay type: functional; details: UACC-62, 48 h
TK-10 [3] = test: Cytotoxicity against human TK10 cells assessed as cell growth at 100 uM after 48 hrs by sulforhodamine B assay relative to control; assay type: functional; details: TK-10, 48 h, read-out: Activity
NCI-H522 = test: Cytotoxicity against human NCI-H522 cells assessed as cell growth at 100 uM after 48 hrs by sulforhodamine B assay relative to control; assay type: functional; details: NCI-H522, 48 h, read-out: Activity
HCT-15 [4] = test: Cytotoxicity against human HCT15 cells assessed as cell growth at 0.01 uM after 48 hrs by sulforhodamine B assay relative to control; assay type: functional; details: HCT-15, 48 h, read-out: Activity
K562 = test: Cytotoxicity against human K562 cells assessed as cell growth at 0.01 uM after 48 hrs by sulforhodamine B assay relative to control; assay type: functional; details: K562, 48 h, read-out: Activity
SK-MEL-28 = test: Cytotoxicity against human SK-MEL-28 cells assessed as cell growth at 10 uM after 48 hrs by sulforhodamine B assay relative to control; assay type: functional; details: SK-MEL-28, 48 h, read-out: Activity
SF-268 = test: Cytotoxicity against human SF268 cells assessed as cell growth at 0.01 uM after 48 hrs by sulforhodamine B assay relative to control; assay type: functional; details: SF-268, 48 h, read-out: Activity
HL-60(TB) = test: Cytotoxicity against human HL-60(TB) cells assessed as growth inhibition after 48 hrs by sulforhodamine B assay; assay type: functional; details: HL-60, 48 h
HT-29 = test: Cytotoxicity against human HT-29 cells assessed as growth inhibition after 48 hrs by sulforhodamine B assay; assay type: functional; details: HT-29, 48 h
SNB-19 = test: Cytotoxicity against human SNB19 cells assessed as cell growth at 0.1 uM after 48 hrs by sulforhodamine B assay relative to control; assay type: functional; details: SNB-19, 48 h, read-out: Activity
NCI-H226 [5] = test: Cytotoxicity against human NCI-H226 cells assessed as cell growth at 10 uM after 48 hrs by sulforhodamine B assay relative to control; assay type: functional; details: NCI-H226, 48 h, read-out: Activity
IGROV-1 = test: Cytotoxicity against human IGROV1 cells assessed as cell growth at 1 uM after 48 hrs by sulforhodamine B assay relative to control; assay type: functional; details: IGROV-1, 48 h, read-out: Activity
OVCAR-8 [6] = test: Cytotoxicity against human OVCAR8 cells assessed as cell growth at 0.1 uM after 48 hrs by sulforhodamine B assay relative to control; assay type: functional; details: OVCAR-8, 48 h, read-out: Activity
MDA-MB-468 = test: Cytotoxicity against human MDA-MB-468 cells assessed as cell growth at 10 uM after 48 hrs by sulforhodamine B assay relative to control; assay type: functional; details: MDA-MB-468, 48 h, read-out: Activity
MOLT-4 = test: Cytotoxicity against human MOLT4 cells assessed as cell growth at 0.1 uM after 48 hrs by sulforhodamine B assay relative to control; assay type: functional; details: MOLT-4, 48 h, read-out: Activity
CCRF-CEM = test: Cytotoxicity against human CCRF-CEM cells assessed as cell growth at 0.01 uM after 48 hrs by sulforhodamine B assay relative to control; assay type: functional; details: read-out: Activity
MCF7 [7] = test: Cytotoxicity against human MCF7 cells assessed as cell growth at 0.01 uM after 48 hrs by sulforhodamine B assay relative to control; assay type: functional; details: MCF7, 48 h, read-out: Activity
OVCAR-3 = test: Cytotoxicity against human OVCAR3 cells assessed as cell growth at 100 uM after 48 hrs by sulforhodamine B assay relative to control; assay type: functional; details: OVCAR-3, 48 h, read-out: Activity
SF-539 = test: Cytotoxicity against human SF539 cells assessed as growth inhibition after 48 hrs by sulforhodamine B assay; assay type: functional; details: SF-539, 48 h
TK-10 [8] = test: Cytotoxicity against human TK10 cells assessed as cell growth at 0.1 uM after 48 hrs by sulforhodamine B assay relative to control; assay type: functional; details: TK-10, 48 h, read-out: Activity
U-251 = test: Cytotoxicity against human U251 cells assessed as cell growth at 0.01 uM after 48 hrs by sulforhodamine B assay relative to control; assay type: functional; details: U-251, 48 h, read-out: Activity
OVCAR-4 [9] = test: Cytotoxicity against human OVCAR4 cells assessed as cell growth at 10 uM after 48 hrs by sulforhodamine B assay relative to control; assay type: functional; details: OVCAR-4, 48 h, read-out: Activity
NCI-H226 [10] = test: Cytotoxicity against human NCI-H226 cells assessed as cell growth at 1 uM after 48 hrs by sulforhodamine B assay relative to control; assay type: functional; details: NCI-H226, 48 h, read-out: Activity
MCF7 [11] = test: Cytotoxicity against human MCF7 cells assessed as growth inhibition after 48 hrs by sulforhodamine B assay; assay type: functional; details: MCF7, 48 h
UO-31 = test: Cytotoxicity against human UO31 cells assessed as cell growth at 0.1 uM after 48 hrs by sulforhodamine B assay relative to control; assay type: functional; details: UO-31, 48 h, read-out: Activity
OVCAR-4 [12] = test: Cytotoxicity against human OVCAR4 cells assessed as cell growth at 1 uM after 48 hrs by sulforhodamine B assay relative to control; assay type: functional; details: OVCAR-4, 48 h, read-out: Activity
NCI/ADR-RES = test: Cytotoxicity against human NCI/ADR-RES cells assessed as cell growth at 100 uM after 48 hrs by sulforhodamine B assay relative to control; assay type: functional; details: read-out: Activity
HCT-15 [13] = test: Cytotoxicity against human HCT15 cells assessed as growth inhibition after 48 hrs by sulforhodamine B assay; assay type: functional; details: HCT-15, 48 h
UACC-257 = test: Cytotoxicity against human UACC257 cells assessed as cell growth at 10 uM after 48 hrs by sulforhodamine B assay relative to control; assay type: functional; details: UACC-257, 48 h, read-out: Activity
HCC 2998 = test: Cytotoxicity against human HCC2998 cells assessed as growth inhibition after 48 hrs by sulforhodamine B assay; assay type: functional; details: HCC 2998, 48 h
A549 = test: Cytotoxicity against human A549/ATCC cells assessed as growth inhibition after 48 hrs by sulforhodamine B assay; assay type: functional; details: A549, 48 h

COc1ccc(-c2cc(/C=C/C(=O)c3ccc(OC)c(OC)c3)[nH]n2)cc1
growth at 1 µM (OVCAR-8 [1]): 75% | growth at 0.01 µM (OVCAR-8 [2]): 93% | growth at 1 µM (SK-MEL-5): 88% | IC50 (MDA-MB-231): 0.6 µM | GI50 (UACC-62): 1.65 µM | LC50 (UACC-62): 6.79 µM | TGI (UACC-62): 3.35 µM | growth at 100 µM (TK-10 [3]): -98% | growth at 100 µM (NCI-H522): -81% | growth at 0.01 µM (HCT-15 [4]): 95% | growth at 0.01 µM (K562): 109% | growth at 10 µM (SK-MEL-28): -95% | growth at 0.01 µM (SF-268): 101% | GI50 (HL-60(TB)): 2.18 µM | LC50 (HL-60(TB)): > 100 µM | TGI (HL-60(TB)): 6.4 µM | GI50 (HT-29): 1.55 µM | LC50 (HT-29): 7.68 µM | TGI (HT-29): 3.45 µM | growth at 0.1 µM (SNB-19): 90% | growth at 10 µM (NCI-H226 [5]): -64% | growth at 1 µM (IGROV-1): 77% | growth at 0.1 µM (OVCAR-8 [6]): 89% | growth at 10 µM (MDA-MB-468): -69% | growth at 0.1 µM (MOLT-4): 108% | growth at 0.01 µM (CCRF-CEM): 102% | growth at 0.01 µM (MCF7 [7]): 91% | growth at 100 µM (OVCAR-3): -96% | GI50 (SF-539): 1.27 µM | LC50 (concentration killing 50% of cells) (SF-539): 5.38 µM | TGI (SF-539): 2.61 µM | growth at 0.1 µM (TK-10 [8]): 102% | growth at 0.01 µM (U-251): 95% | growth at 10 µM (OVCAR-4 [9]): -27% | growth at 1 µM (NCI-H226 [10]): 76% | GI50 (MCF7 [11]): 0.41 µM | LC50 (MCF7 [11]): 5.11 µM | TGI (MCF7 [11]): 1.76 µM | growth at 0.1 µM (UO-31): 87% | growth at 1 µM (OVCAR-4 [12]): 39% | growth at 100 µM (NCI/ADR-RES): -22% | GI50 (HCT-15 [13]): 1.35 µM | LC50 (HCT-15 [13]): 9.41 µM | TGI (HCT-15 [13]): 3.56 µM | growth at 10 µM (UACC-257): -67% | GI50 (HCC 2998): 2.02 µM | LC50 (HCC 2998): 7.81 µM | TGI (HCC 2998): 3.97 µM | GI50 (A549): 1.88 µM | LC50 (concentration giving 50% net cell kill) (A549): > 100 µM | TGI (A549): 5.95 µM

COc1ccc(C(=O)/C=C/c2cc(-c3cc(OC)c(OC)c(OC)c3)n[nH]2)cc1OC
growth at 1 µM (OVCAR-8 [1]): 69% | growth at 0.01 µM (OVCAR-8 [2]): 97% | growth at 1 µM (SK-MEL-5): 91% | IC50 (MDA-MB-231): 0.62 µM | LC50 (UACC-62): 5.98 µM | TGI (UACC-62): 3.22 µM | growth at 100 µM (TK-10 [3]): -99% | growth at 100 µM (NCI-H522): -97% | growth at 0.01 µM (HCT-15 [4]): 97% | growth at 0.01 µM (K562): 96% | growth at 10 µM (SK-MEL-28): -88% | growth at 0.01 µM (SF-268): 93% | LC50 (HL-60(TB)): 80.2 µM | TGI (HL-60(TB)): 4.18 µM | LC50 (HT-29): 5.75 µM | TGI (HT-29): 3.05 µM | growth at 0.1 µM (SNB-19): 93% | growth at 10 µM (NCI-H226 [5]): -81% | growth at 1 µM (IGROV-1): 96% | growth at 0.1 µM (OVCAR-8 [6]): 92% | growth at 10 µM (MDA-MB-468): -87% | growth at 0.1 µM (MOLT-4): 98% | growth at 0.01 µM (CCRF-CEM): 95% | growth at 0.01 µM (MCF7 [7]): 89% | growth at 100 µM (OVCAR-3): -84% | GI50 (SF-539): 1.27 µM | LC50 (concentration killing 50% of cells) (SF-539): 5.31 µM | TGI (SF-539): 2.6 µM | growth at 0.1 µM (TK-10 [8]): 90% | growth at 0.01 µM (U-251): 96% | growth at 10 µM (OVCAR-4 [9]): 23% | growth at 1 µM (NCI-H226 [10]): 89% | LC50 (MCF7 [11]): 5.72 µM | TGI (MCF7 [11]): 1.95 µM | growth at 0.1 µM (UO-31): 87% | growth at 1 µM (OVCAR-4 [12]): 70% | growth at 100 µM (NCI/ADR-RES): -40% | LC50 (HCT-15 [13]): 6.4 µM | TGI (HCT-15 [13]): 2.85 µM | growth at 10 µM (UACC-257): -98% | LC50 (HCC 2998): 6.7 µM | TGI (HCC 2998): 3.78 µM | LC50 (concentration giving 50% net cell kill) (A549): 15.7 µM | TGI (A549): 4.59 µM
